{"source": "paper PMC3738054", "about": "(Journal of immunology (Baltimore, Md. : 1950), 2013)", "origin": "cited, not measured here", "system": "cerebral malaria", "conditions": "oral inhibitor, murine model of cerebral malaria"}
{"smiles": "c1cc(-c2nc3ccc(OCCCN4CCCC4)cc3o2)ccc1OCCCN1CCCC1", "note": "[E6446]", "values": [{"measurement": "efficacy in mitigating inflammatory injury", "result": "has shown efficacy"}]}
